According to US11260118B2, “Immunogenic peptide composition” (Cancer Research Malaysia, priority 2017, dated 2022):
Where no end group is shown, it is not given here.

Assays:
[1] = tested on: mouse macrophage cell line RAW264.7
[2] = tested on: target cells 195M (MAGED4B) and C666.1F (FJX1)
Experimental: The cytotoxic ELISPOT assay was used to study the response of peptide-pulsed CTLs derived from the patients to target cell lines overexpressing the target antigens. CTLs were co-cultured with target cells, where this culture was re-suspended in complete culture media supplemented with IL-7 and interleukin 2 (IL-2) proteins and applied to IFNγ and granzyme B ELISPOT plates. The cell suspension was further incubated to allow the interaction between CTLs and target cell line before determining the potential killing ability of CTLs against FJX1 and MAGED4b expressing target cells.
Dendritic cells from patients were isolated and subsequently used as antigen presenting cells. Briefly, PBMCs were re-suspended in macrophage-serum free media (M-SFM) (Gibco, Thermo Fisher, MA, USA), seeded in a 6-well plate and incubated for 1 hour at 37° C. After incubation, non-adherent cells from PBMCs were collected, rinsed in HBSS and then re-suspended in complete culture media contained 10 ng/ml IL-7. Approximately 2-5×10^5 cells per well were seeded into round bottom 96-well plates. Cells were then incubated for 2-5 days at 37° C. for T cell expansion with the addition of 50 μg/ml of peptides. The adherent cells resulting from the incubation, were cultured at 37° C. for 2-5 days in M-SFM in the presence of 100 ng/ml GM-CSF and 25 ng/ml IL-4 to induce differentiation of dendritic cells (DCs). […]

HNSCC = conditions: cited from earlier work
[3] = tested on: recurrent or metastatic HNSCC; conditions: human, in vivo; cited from earlier work

Substance: RLSLLLVIL [M6]
- degree of inflammation / iNOS accumulation [1]: low

Substance: SLYNTYATL [HIV peptide]
- IFNγ and granzyme B secretion / cytotoxic T cell response after in vitro peptide stimulation [2]: induces increased levels of IFNγ and Granzyme B secretion

Substance: WLLALGSLLAL [F1, WLLALGSLLAL]
- degree of inflammation / iNOS accumulation [1]: low
- production of nitrite, fold lower than LPS positive control [1]: 10 fold

Substance: nivolumab
- overall survival rate of HNSCC patients (HNSCC; 16% in standard therapy group): 36%
- grade 3 or grade 4 events versus standard therapy (HNSCC; human, in vivo): fewer grade 3 or grade 4 events
- response rate of HNSCC patients (HNSCC; human, in vivo): 13%
- survival longer than standard therapy group (HNSCC; human, in vivo): 2.4 months

Substance: pembrolizumab
- objective response rate (complete or partial response of tumour size reduction) [3]: 16%
